The target in experiment [1] is T1, RAD52 (Homo sapiens, UniProt P43351).
T1 construct: made in house
T1 sequence (P43351 1-418): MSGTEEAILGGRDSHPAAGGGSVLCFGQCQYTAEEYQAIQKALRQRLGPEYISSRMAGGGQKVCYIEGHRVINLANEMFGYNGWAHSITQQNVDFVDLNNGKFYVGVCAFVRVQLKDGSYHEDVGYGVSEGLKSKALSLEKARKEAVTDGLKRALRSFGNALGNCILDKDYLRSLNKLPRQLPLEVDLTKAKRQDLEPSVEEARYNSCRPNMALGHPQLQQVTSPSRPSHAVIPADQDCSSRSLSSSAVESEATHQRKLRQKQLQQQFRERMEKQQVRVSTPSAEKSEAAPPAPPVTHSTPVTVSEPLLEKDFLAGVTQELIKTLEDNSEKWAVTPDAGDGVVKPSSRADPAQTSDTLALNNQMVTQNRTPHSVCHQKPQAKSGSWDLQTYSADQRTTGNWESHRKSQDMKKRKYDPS
Put plainly: Fluorescence-quenching assay for RAD52 ssDNA annealing (HTS). In kind it is biochemical.
Experimental: Tailed dsDNA substrate was prepared by thermal annealing of ssDNA oligonucleotides 337-F and 1337-BHQ1 (SEQ ID NO: 2) containing Fluorescein and Black Hole Quencher 1 residues at the 5′ and 3′ end, respectively. […] The fluorescence intensity was measured in a 3-mm quartz cuvette (Starna Cells) using a FluoroMax-3 (HORIBA) fluorimeter with 492 nm excitation wavelength and 520 nm emission wavelength at 30° C. for at least 2000 s.
The HTS was performed using the 8 channel BioRAPTR 1536 (Beckman) for reagent dispensing. […] Wells containing no RAD52 enzyme were used to as positive control, and data were analyzed using Genedata.
A fluorescence-quenching assay was used to screen for inhibitors of RAD52 ssDNA annealing activity (FIGS. 1A-1E). […] Annealing promoted by RAD52 between ssDNA and tdsDNA led to displacement of the FLU-carrying DNA strand from the tdsDNA and in an increase in fluorescence due to secession of fluorescence quenching by the BHQ1 group (FIG. 1B).
The fluorescence-quenching assay was optimized for 1,536 well plates (Z′ Avg=0,64). […] The hits were further analyzed for a concentration dependence in inhibiting of RAD52 and by testing their DNA binding affinity using the acridine orange assay.

Experiment [2] deals with T1, RAD52. Briefly: D-loop formation (DNA pairing) by RAD52. The conditions noted are these: three independent repeats, read-out: Inhibition of DNA pairing (D-loop formation), IC50. In kind it is biochemical. The procedure: Cisplatin was purchased from Sigma-Aldrich. Human RAD52 and RAD51 were purified as described (Bugreev et al., 2005, Mol. Cell. Biol. 33, 387-395). The oligonucleotides (Table 2) were purchased from IDT, Inc and further purified by electrophoresis (Rossi et al., 2010, Methods 51, 336-346). Supercoiled pUC19 plasmid DNA was purified using Qiagen kits. All DNA concentrations are expressed as moles of nucleotide.
To form RAD52 nucleoprotein complexes, RAD52 (0.45 μM) was incubated with a ^32P-labeled ssDNA (oligo 90/SEQ ID NO: 4) (3 μM, nt) in buffer containing 25 mM Tris-Acetate, pH 7.5, 100 μg·ml-1 BSA, 0.3 mM magnesium acetate, and 2 mM DTT at 37° C. for 15 min. To form RAD51 nucleoprotein filament, RAD51 (1 μM) was incubated with ^32P-labeled ssDNA (3 μM, nt) in buffer containing 25 mM Tris-Acetate, pH 7.5, 100 μg·ml-1 BSA, 1 mM calcium chloride, 1 mM ATP and 2 mM DTT for 15 min at 37° C. Then inhibitors were added to both reactions and incubation continued for 15 min at 37° C. D-Loop formation was initiated by addition of supercoiled pUC19 DNA (50 μM, nucleotides) and was carried out 15 min at 37° C. The reactions were stopped and deproteinized by the addition of 1.5% SDS and proteinase K (0.8 mg/ml) for 15 min at 37° C., mixed with a 0.10 volume of loading buffer (70% glycerol, 0.1% bromphenol blue), and analyzed by electrophoresis in 1% agarose gels in TAE buffer (40 mM Tris acetate, pH 8.3, and 1 mM EDTA) at 5 V/cm for 3 h. The gels were dried on DEAE-81 paper (Whatman) and the yield of D-loops quantified using a Storm 840 PhosphorImager and ImageQuant 5.2 (GE Healthcare). The D-loop yield was expressed as a percentage of plasmid DNA carrying D-loops relative to the total plasmid DNA.
IC50 values were calculated using GraphPad Prism V5.0 software. The data were obtained from three independent repeats of experiments.
The inhibitory effect of the 70 selected compounds were tested using the D-loop assay, in which RAD52 promotes pairing between 32P-labeled ssDNA and homologous supercoiled plasmid pUC19 DNA (FIG. 1D); the product of the reaction, D-loops, were analyzed by electrophoresis in 1% agarose gels. […] Then, the effects of each of the 17 compounds on RAD52-dependent D-loop formation were measured in a concentration dependent manner.

The subject of experiment [3] is Capan-1 (BRCA2-) and BxPC3 (BRCA2+) cells. Briefly: Luminescent cell viability assay, BRCA2-deficient versus proficient cells. Type of experiment: cell-based, Human. The conditions noted are these: 9 days exposure. How it is done:
(§1) BxPC3 cells were kept in RPMI 1640 (ATCC) media supplemented with 10% FBS (Gibco). Capan-1/BxPC3 Capan-1 cells were kept in IMDM (ATCC) media containing 20% FBS (GIBCO). […] cells were kept in 48.5% RPMI1640 (ATCC), 48.5% MEGM (Clonetics/Lonza, MEGM kit, CC-3150) and 3% FBS (GIBCO) respectively. Cells in log-phase were harvested and 100 μl cell suspensions were replated in a 96-well plate with a final density of 4000 cells/well. After overnight growth, cells were treated with indicated concentrations of compounds. Media containing the invariant concentration of compounds were refreshed every 3 days until cells were finally lysed by 30 μl/well of Promega CellTiter-Glo reagents and read on a Promega GloMax 96 reader on day 10 (9 days exposure).
(§2) BxPC3 cells were kept in RPMI 1640 (ATCC) media supplemented with 10% FBS (Gibco); Capan-1 cells were kept in IMDM (ATCC) media containing 20% FBS (GIBCO); UWB1.298 and UWB1.298 (BRCA1+) cells were kept in 48.5% RPMI1640 (ATCC), 48.5% MEGM (Clonetics/Lonza, MEGM kit, CC-3150) and 3% FBS (GIBCO) respectively. […] Media containing the invariant concentration of compounds were refreshed every 3 days until cells were finally lysed by 30 μl/well of Promega CellTiter-Glo reagents and read on a Promega GloMax 96 reader on day 10 (9 days exposure). […]

The subject of experiment [4] is UWB1.289 (BRCA1-) and UWB1.289 (+BRCA1) cells. Put plainly: Luminescent cell viability assay, BRCA1-deficient versus proficient cells. Type of experiment: cell-based, Human. The note with it: 9 days exposure. The procedure: as §1, §2
Experiment [5] deals with MDA-MB-436 (BRCA1-) and MDA-MB-436 (BRCA1+) cells. Put plainly: Clonogenic survival assay. Type of experiment: cell-based, Human. The procedure: MDA-MB-436 cells were cultured in RPMI+10% FBS. BRCA-proficient and BRCA-deficient cells were plated on day 0 in triplicate at 5,000 cells/well. […] Cells were counted on day 4 on a hemocytometer, using Trypan Blue exclusion, and immediately were plated in a clonogenic assay at a density of 500 cells/well in a 6 well plate, in RPMI+10% FBS. After two weeks, the colonies were fixed/stained with 0.05% of 10 mg/ml ethidium bromide in 50% ethanol and visualized with Alphaimager gel imager (Alpha Innotech).
Likewise, the effects of RAD52 inhibitors on the growth of BRCA1-deficient (UWB1.289 BRCA1^−) and BRCA1-proficient (UWB1.289 BRCA^+) cells were tested. 7 out 14 tested RAD52 inhibitors preferentially suppress the growth of BRCA1-deficient cells. Importantly, these 7 compounds included the 5 compounds that inhibited the growth of BRCA2-deficient cells (FIGS. 3E-3H). The effects of the 14 RAD52 inhibitors were tested on the survival of another BRCA1-deficient cells, and MDA-MB-436 cells. […] BRCA1-deficiency in these cells is due to constitutive downregulation of this protein.

The test system of experiment [6] is BRCA1/2-deficient cell lines. Briefly: Growth of BRCA1/2-deficient cell lines (summary over tested lines). Type of experiment: cell-based, Human. How it is done:
as §1
as §1, with “(Gibco);” for “(Gibco). Capan-1/BxPC3”, “(GIBCO);” for “(GIBCO).”, “exposure). Promega CellTiter-Glo protocol is available on the web: www dot promega dot com/resources/protocols/technical-bulletins/0/celltiter-glo-luminescent-cell-viability-assay-protocol/” for “exposure).”
MDA-MB-436 cells were cultured in RPMI+10% FBS. BRCA-proficient and BRCA-deficient cells were plated on day 0 in triplicate at 5,000 cells/well. […] Cells were counted on day 4 on a hemocytometer, using Trypan Blue exclusion, and immediately were plated in a clonogenic assay at a density of 500 cells/well in a 6 well plate, in RPMI+10% FBS. […]

The text below walks through data of patent US10738061B2, “Inhibitors of RAD52 recombination protein and methods using same” (Drexel University, priority 2015, dated 2020).

The IC50 is the concentration that inhibits the measured activity by half.

Regarding `CCN(CC)CCCN(Cc1cc2cc3c(cc2[nH]c1=O)OCO3)C(=S)NCCCN(C)C` [D-A13, 1-(3-(diethylamino)propyl)-3-(3-(dimethylamino)propyl)-1-((6-oxo-5,6-dihydro-[1,3]dioxolo[4,5-g]quinolin-7-yl)methyl)thiourea], the IC50 in experiment [1] was 5.2 µM; in experiment [2], 13.6 ± 0.64 µM.
`COc1ccc(-c2nc(C(=O)NCCCN3CCOCC3)cc3c2[nH]c2ccccc23)cc1OC` [D-A19, 1-(3,4-dimethoxyphenyl)-N-(3-morpholinopropyl)-9H-pyrido[3,4-b]indole-3-carboxamide]: the IC50 amounted to 4.8 µM in experiment [1] and 7.2 ± 0.28 µM in experiment [2].
For the compound `Cc1c(C(=O)Nc2ccc(S(=O)(=O)N(C)C3CCN(C)CC3)cc2)oc2c(Cl)cccc12` [D-A21, 7-chloro-3-methyl-N-(4-(N-methyl-N-(1-methylpiperidin-4-yl)sulfamoyl)phenyl) benzofuran-2-carboxamide], the figures for the IC50 in experiment [1] and in experiment [2] were 9.8 µM and 16.2 ± 0.42 µM, respectively.
Turning to `Cc1ccc(C(=O)c2oc3ccc(Cl)cc3c2NC(=O)CN2CCN(C)CC2)cc1` [D-C17, N-(5-chloro-2-(4-methylbenzoyl)benzofuran-3-yl)-2-(4-methylpiperazin-1-yl)acetamide], the values for the IC50 in experiment [1] and in experiment [2] were 6 µM and 17.6 ± 0.78 µM, respectively.
In the case of `Cc1ccc(-c2nc(C(=O)NCCCN3CCOCC3)cc3c2[nH]c2ccccc23)cc1` [D-C19, N-(3-morpholinopropyl)-1-(p-tolyl)-9H-pyrid[3,4-b]indole-3-carboxamide], the IC50 was found to be 2 µM in experiment [1] and 4.3 ± 0.35 µM in experiment [2].
For `CCN1CCN(CCCNC(=S)Nc2ccc3nc(N(C)CCN)cc(C)c3c2)CC1` [D-E05, 1-(2-((2-aminoethyl)(methyl)amino)-4-methylquinolin-6-yl)-3-(3-(4-ethylpiperazin-1-yl)propyl)thiourea] the same measures were 1.7 µM and 11.3 ± 0.35 µM.
On to `CCCCN(CC)CCCNC(=S)Nc1ccc2nc(N3CCN(C)CC3)cc(C)c2c1` [D-G09, 1-(3-(butyl(ethyl)amino)propyl)-3-(4-methyl-2-(4-methylpiperazin-1-yl)quinolin-6-yl)thiourea], for which the IC50 was 2 µM in experiment [1] and 14.8 ± 2.47 µM in experiment [2]. Further, the “effect on growth of BRCA2-deficient Capan-1 cells versus BxPC3” value in experiment [3] is “showed an inhibitory effect”. Further, the “effect on growth of BRCA1-deficient UWB1.289 cells versus UWB1.289 (+BRCA1)” value in experiment [4] is given as “showed an inhibitory effect”. The “effect on survival of BRCA1-deficient MDA-MB-436 cells versus MDA-MB-436 (BRCA1+)” value in experiment [5] is recorded as “showed an inhibitory effect”.
In the case of `CCCN(CCC)CCCNC(=S)Nc1ccc2nc(N3CCN(C)CC3)cc(C)c2c1` [D-G11, 1-(3-(dipropylamino)propyl)-3-(4-methyl-2-(4-methylpiperazin-1-yl)quinolin-6-yl)thiourea], the results for the IC50 in experiment [1] and in experiment [2] were 6 µM and 8.9 ± 1.6 µM, respectively. The “effect on growth of BRCA2-deficient Capan-1 cells versus BxPC3” value in experiment [3] was “showed activity”. Besides, the “effect on growth of BRCA1-deficient UWB1.289 cells versus UWB1.289 (+BRCA1)” value in experiment [4] was “showed activity”.
Take `Cc1cc(N2CCN(C)CC2)nc2ccc(NC(=S)NCCCN3CCN(C)CC3)cc12` [D-I01, 1-(4-methyl-2-(4-methylpiperazin-1-yl)quinolin-6-yl)-3-(3-(4-methylpiperazin-1-yl)propyl)thiourea]: the IC50 in experiment [1] was 3.6 µM; in experiment [2], 15.4 ± 0.57 µM.
With `COc1ccc(OC)c(Nc2nc(NCCO)c3ccccc3n2)c1` [D-I05, 2-((2-((2,5-dimethoxyphenyl)amino)quinazolin-4-yl)amino)ethan-1-ol], the IC50 in experiment [1] came to 4.3 µM; in experiment [2], 8.8 ± 0.42 µM. Further, the “preferential inhibition of BRCA1/2-deficient cell lines (summary)” value in experiment [6] was “preferentially inhibited at least two BRCA1/2-deficient cell lines”.
For the compound `CN1CCN(CCCNC(=O)c2cc3c(-c4ccc(Cl)cc4)nn(C)c3s2)CC1` [D-I07, 3-(4-chlorophenyl)-1-methyl-N-(3-(4-methylpiperazin-1-yl)propyl)-1H-thieno[2,3-c]pyrazole-5-carboxamide], the IC50 in experiment [1] turned out to be 2 µM; in experiment [2], 2.7 ± 0.35 µM.
In the case of `CCCCN(CC)CCNC(=O)c1cc2c(-c3ccc(Cl)cc3)nn(C)c2s1` [D-I09, N-(2-(butyl(ethyl)amino)ethyl)-3-(4-chlorophenyl)-1-methyl-1H-thieno[2,3-c]pyrazole-5-carboxamide], the IC50 in experiment [1] was found to be 6.8 µM; in experiment [2] it was 10.6 ± 1.4 µM.
Taken in the same sequence, the figures for `Cn1nc(-c2ccc(Cl)cc2)c2cc(C(=O)NCCCN3CCCCCC3)sc21` [D-I11, N-(3-(azepan-1-yl)propyl)-3-(4-chlorophenyl)-1-methyl-1H-thieno[2,3-c]pyrazole-5-carboxamide] were 4.1 µM and 6.7 ± 0.78 µM.
Consider `Cn1nc(-c2ccc(Cl)cc2)c2cc(C(=O)NCCCN3CCCC3)sc21` [D-I19, 3-(4-chlorophenyl)-1-methyl-N-(3-(pyrrolidin-1-yl)propyl)-1H-thieno[2,3-c]pyrazole-5-carboxamide], for which the IC50 in experiment [1] was determined as 3.5 µM; in experiment [2], 4.1 ± 0.14 µM.
On to `COc1ccccc1Nc1nc(NCCCO)c2ccccc2n1` [D-K17, 3-((2-((2-methoxyphenyl)amino)quina-zolin-4-yl)amino)propan-1-ol], for which the IC50 in experiment [1] is 2.9 µM; in experiment [2], 4.8 ± 0.85 µM. Also, the “preferential inhibition of BRCA1/2-deficient cell lines (summary)” value in experiment [6] is reported as “preferentially inhibited at least two BRCA1/2-deficient cell lines”.
